The record followed here is ChEMBL document CHEMBL1275446, “Stronger activity of human immunodeficiency virus type 1 protease inhibitors against clinical isolates of Plasmodium vivax than against those of P. falciparum” (Antimicrob Agents Chemother, 2008).

Experiment [1] has as its system Plasmodium falciparum. Briefly: Antimicrobial activity against Plasmodium falciparum at ring stage. Format: functional, organism-based.
In experiment [2] the test system is Plasmodium vivax. The experiment can be described thus: Antimicrobial activity against Plasmodium vivax at ring stage.
In experiment [3] the test system is Plasmodium vivax. Briefly: Antimicrobial activity against Plasmodium vivax at trophozoite stage. Format: functional, organism-based.
Experiment [4] deals with Plasmodium vivax. The experiment can be described thus: Antimicrobial activity against Plasmodium vivax harboring single copy of Pvmdr1 gene. Format: functional, organism-based.
Experiment [5] has as its system Plasmodium vivax. Briefly: Antimicrobial activity against Plasmodium vivax harboring amplified Pvmdr1 gene. Format: functional, organism-based.
Experiment [6] concerns Plasmodium falciparum. The experiment can be described thus: Antimicrobial activity against Plasmodium falciparum harboring amplified Pfmdr1 gene.
The subject of experiment [7] is Plasmodium falciparum. Briefly: Antimicrobial activity against Plasmodium falciparum harboring single copy of Pfmdr1 gene.

With `CC(C)(C)NC(=O)[C@@H]1C[C@@H]2CCCC[C@@H]2CN1C[C@@H](O)[C@H](Cc1ccccc1)NC(=O)[C@H](CC(N)=O)NC(=O)c1ccc2ccccc2n1`, in experiment [1], 8.3 µM corresponded to half-maximal inhibition (IC50).

For `CCN(CC)CCCC(C)Nc1ccnc2cc(Cl)ccc12` (centres undefined) [CHLOROQUINE], the IC50 in experiment [2] is 38 nM; in experiment [3] it was 442 nM.

For `CC(C)c1nc(CN(C)C(=O)N[C@H](C(=O)N[C@@H](Cc2ccccc2)C[C@H](O)[C@H](Cc2ccccc2)NC(=O)OCc2cncs2)C(C)C)cs1` [RITONAVIR], the IC50 in experiment [1] amounted to 9.66 µM.

Turning to `OC(c1cc(C(F)(F)F)nc2c(C(F)(F)F)cccc12)C1CCCCN1` (centres undefined) [MEFLOQUINE], the IC50 in experiment [4] amounted to 43 nM; in experiment [5], 176 nM; in experiment [6], 182 nM; in experiment [7], 77 nM; in experiment [1] it was 0.137 µM.
